Experimental data: patent publication US8017612B2, “Piperazine compound and use thereof as a HCV polymerase inhibitor” (priority 2006, dated 2011)

Assays:
[1] = target: T1, HCV polymerase (NS5B) type 1b (Hepatitis C virus genotype 1b, UniProt P26663); assay: Assay of enzyme (HCV polymerase) inhibitory activity, type 1b enzyme; assay type: biochemical, HCV BK strain (type 1b); details: HCV polymerase inhibitory activity (IC50), 1b, type 1b enzyme 0.5 μg/ml, 25° C., 60 min
T1 construct: a region encoding NS5B (J Virol 1991 March, 65(3), 1105-13, 544 amino acids after deletion of 47 amino acids on the C-terminal); 6xHis (C); made in house; host or cells: Escherichia coli
How it was run: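 NS5B from HCV BK strain (type 1b), C-terminal 47 aa deleted, C-terminal His6-tagged, E. coli-expressed, 0.5 μg/ml, with ~450 nt substrate RNA carrying the 3′ UTR (polyU, 3′X) at 5 μg/ml. Incubation 60 min at 25 °C with 50 μM ATP/GTP/CTP, 2 μM UTP plus [3H]UTP, pH 7.5 Tris.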

[2] = target: T2, HCV polymerase (NS5B) type 1a (Hepatitis C virus genotype 1a, UniProt P26664); assay: Assay of enzyme (HCV polymerase) inhibitory activity, type 1a enzyme; assay type: biochemical, HCV type 1a (cloned from the blood of patients); details: HCV polymerase inhibitory activity (IC50), 1a, type 1a enzyme 1.5 μg/ml, 25° C., 60 min
T2 construct: made in house; host or cells: Escherichia coli (by the 'similar method' of the 1b enzyme)
How it was run: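 Patient-derived type 1a NS5B (C-terminal 47-aa deletion, His-tagged, E. coli-expressed) at 1.5 μg/ml was reacted with 5 μg/ml 3′UTR-containing substrate RNA, 50 μM ATP/GTP/CTP, 2 μM UTP plus [3H]UTP, pH 7.5, 25° C for 60 min. TCA-precipitated RNA radioactivity was counted; IC50 from ± compound.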

| Structure (SMILES) | IC50 [1] [µM] | IC50 [2] [µM] |
| --- | --- | --- |
| CC(C)(C)c1ccc(CNC(=O)[C@H]2CN(c3nc4nn[nH]c(=O)c4s3)CCN2S(=O)(=O)c2ccc(OC(F)(F)F)cc2)cc1 [Example 618, (R)-4-(4-oxo-3,4-dihydro-thiazolo[4,5-d][1,2,3]triazin-6-yl)-1-(4-trifluoromethoxy-benzenesulfonyl)-piperazine-2-carboxylic acid 4-tert-butyl-benzylamide] | < 0.1 | < 0.1 |
| CCN(C)c1ccc(CNC(=O)[C@H]2CN(c3cnc4cncnc4n3)CCN2S(=O)(=O)c2ccc(OC(F)(F)F)cc2)cc1 [Example 619, (R)-4-pteridin-7-yl-1-(4-trifluoromethoxy-benzenesulfonyl)-piperazine-2-carboxylic acid 4-(ethyl-methyl-amino)-benzylamide] | < 0.1 | < 0.1 |
| CC(C)(C)c1ccc(CNC(=O)[C@H]2CN(c3ccc(C(=O)O)nc3)CCN2S(=O)(=O)c2ccc(OC(F)(F)F)cc2)cc1 [Example 620, 5-[(R)-3-(4-tert-butyl-benzylcarbamoyl)-4-(4-trifluoromethoxy-benzenesulfonyl)-piperazin-1-yl]-pyridine-2-carboxylic acid] | < 0.1 | < 0.1 |
| CC(=O)N1CCN(S(=O)(=O)c2ccc(OC(F)(F)F)cc2)[C@@H](C(=O)NCC2(O)CCCCC2)C1 [Example 621, (R)-4-acetyl-1-(4-trifluoromethoxy-benzenesulfonyl)-piperazine-2-carboxylic acid (1-hydroxy-cyclohexylmethyl)-amide] | > 1 | > 1 |
| CC(=O)N1CCN(S(=O)(=O)c2ccc(OC(F)(F)F)cc2)[C@@H](C(=O)NCc2ccc(-c3cccs3)s2)C1 [Example 622, (R)-4-acetyl-1-(4-trifluoromethoxy-benzenesulfonyl)-piperazine-2-carboxylic acid ([2,2′]bithiophenyl-5-ylmethyl)-amide] | 0.1 to 1 | < 0.1 |
| CC(=O)N1CCN(S(=O)(=O)c2ccc(OC(F)(F)F)cc2)[C@@H](C(=O)NCc2ccc(-c3cccs3)cc2)C1 [Example 623, (R)-4-acetyl-1-(4-trifluoromethoxy-benzenesulfonyl)-piperazine-2-carboxylic acid 4-thiophen-2-yl-benzylamide] | 0.1 to 1 | < 0.1 |
| CCCc1ccc(CNC(=O)[C@H]2CN(C(C)=O)CCN2S(=O)(=O)c2ccc(OC(F)(F)F)cc2)cc1O [Example 624, (R)-4-acetyl-1-(4-trifluoromethoxy-benzenesulfonyl)-piperazine-2-carboxylic acid 3-hydroxy-4-propyl-benzylamide] | 0.1 to 1 | > 1 |
| CCC(F)(F)c1ccc(CNC(=O)[C@H]2CN(c3nc(OC)ns3)CCN2S(=O)(=O)c2ccc(OC(F)(F)F)cc2)cc1 [Example 625, (R)-4-(3-methoxy-[1,2,4]thiadiazol-5-yl)-1-(4-trifluoromethoxy-benzenesulfonyl)-piperazine-2-carboxylic acid 4-(1,1-difluoro-propyl)-benzylamide] | < 0.1 | < 0.1 |
| CCC(F)(F)c1ccc(CNC(=O)[C@H]2CN(c3ccn4ncnc4n3)CCN2S(=O)(=O)c2ccc(OC(F)(F)F)cc2)cc1 [Example 626, (R)-4-[1,2,4]triazolo[1,5-a]pyrimidin-5-yl-1-(4-trifluoromethoxy-benzenesulfonyl)-piperazine-2-carboxylic acid 4-(1,1-difluoro-propyl)-benzylamide] | < 0.1 | < 0.1 |
| O=C(NCc1ccc(OC(F)(F)F)cc1)[C@H]1CN(c2cnc3cncnc3n2)CCN1S(=O)(=O)c1ccc(OC(F)(F)F)cc1 [Example 627, (R)-4-pteridin-7-yl-1-(4-trifluoromethoxy-benzenesulfonyl)-piperazine-2-carboxylic acid 4-trifluoromethoxy-benzylamide] | < 0.1 | < 0.1 |
| CCCc1ccc(CNC(=O)[C@H]2CN(c3cnc4[nH]c(=O)[nH]c4n3)CCN2S(=O)(=O)c2ccc(OC(F)(F)F)cc2)cc1 [Example 628, (R)-4-(2-oxo-2,3-dihydro-1H-imidazo[4,5-b]pyrazin-5-yl)-1-(4-trifluoromethoxy-benzenesulfonyl)-piperazine-2-carboxylic acid 4-propyl-benzylamide] | < 0.1 | 0.1 to 1 |
| O=C(NCc1ccc(Cl)cc1)[C@H]1CN(c2cnc3cncnc3n2)CCN1S(=O)(=O)c1ccc(OC(F)(F)F)cc1 [Example 629, (R)-4-pteridin-7-yl-1-(4-trifluoromethoxy-benzenesulfonyl)-piperazine-2-carboxylic acid 4-chloro-benzylamide] | < 0.1 | 0.1 to 1 |
| CN(C)c1ccc(CNC(=O)[C@H]2CN(c3cnc4cncnc4n3)CCN2S(=O)(=O)c2ccc(OC(F)(F)F)cc2)cn1 [Example 630, (R)-4-pteridin-7-yl-1-(4-trifluoromethoxy-benzenesulfonyl)-piperazine-2-carboxylic acid (6-dimethylamino-pyridin-3-ylmethyl)-amide] | < 0.1 | < 0.1 |
| CCCc1ccc(CNC(=O)[C@H]2CN(c3ccc(C(=O)O)nc3)CCN2S(=O)(=O)c2ccc(OC(F)(F)F)cc2)cc1 [Example 631, 5-[(R)-3-(4-propyl-benzylcarbamoyl)-4-(4-trifluoromethoxy-benzenesulfonyl)-piperazin-1-yl]-pyridine-2-carboxylic acid] | < 0.1 | < 0.1 |
| CCC(F)(F)c1ccc(CNC(=O)[C@H]2CN(c3cnc4ccccc4n3)CCN2S(=O)(=O)c2ccc(OC(F)(F)F)cc2)cc1 [Example 632, (R)-4-quinoxalin-2-yl-1-(4-trifluoromethoxy-benzenesulfonyl)-piperazine-2-carboxylic acid 4-(1,1-difluoro-propyl)-benzylamide] | < 0.1 | < 0.1 |
| CCC(F)(F)c1ccc(CNC(=O)[C@H]2CN(c3nc4nc[nH]c(=O)c4s3)CCN2S(=O)(=O)c2ccc(OC(F)(F)F)cc2)cc1 [Example 633, (R)-4-(7-oxo-6,7-dihydro-thiazolo[4,5-d]pyrimidin-2-yl)-1-(4-trifluoromethoxy-benzenesulfonyl)-piperazine-2-carboxylic acid 4-(1,1-difluoro-propyl)-benzylamide] | < 0.1 | < 0.1 |
| CCCn1ccc(CNC(=O)[C@H]2CN(C(C)=O)CCN2S(=O)(=O)c2ccc(OC(F)(F)F)cc2)cc1=O [Example 634, (R)-4-acetyl-1-(4-trifluoromethoxy-benzenesulfonyl)-piperazine-2-carboxylic acid (2-oxo-1-propyl-1,2-dihydro-pyridin-4-ylmethyl)-amide] | > 1 | 0.1 to 1 |
| CCCc1ccc(CNC(=O)[C@H]2CN(C(C)=O)CCN2S(=O)(=O)c2ccc(OC(F)(F)F)cc2)cc1N [Example 635, (R)-4-acetyl-1-(4-trifluoromethoxy-benzenesulfonyl)-piperazine-2-carboxylic acid 3-amino-4-propyl-benzylamide] | 0.1 to 1 | > 1 |
| COc1cccc(CNC(=O)[C@H]2CN(C(C)=O)CCN2S(=O)(=O)c2ccc(OC(F)(F)F)cc2)c1 [Example 636, (R)-4-acetyl-1-(4-trifluoromethoxy-benzenesulfonyl)-piperazine-2-carboxylic acid 3-methoxy-benzylamide] | > 1 | > 1 |
| CC(=O)N1CCN(S(=O)(=O)c2ccc(OC(F)(F)F)cc2)[C@@H](C(=O)NCc2cccc(O)c2)C1 [Example 637, (R)-4-acetyl-1-(4-trifluoromethoxy-benzenesulfonyl)-piperazine-2-carboxylic acid 3-hydroxy-benzylamide] | > 1 | > 1 |
| CCC(F)(F)c1ccc(CNC(=O)[C@H]2CN(c3cnc(CN)c(N)n3)CCN2S(=O)(=O)c2ccc(OC(F)(F)F)cc2)cc1 [Example 638, (R)-6′-amino-5′-aminomethyl-4-(4-trifluoromethoxy-benzenesulfonyl)-3,4,5,6-tetrahydro-2H-[1,2′]bipyrazinyl-3-carboxylic acid 4-(1,1-difluoro-propyl)-benzylamide] | < 0.1 | < 0.1 |
| O=C(NCc1nc2ccccc2o1)[C@H]1CN(c2cnc3cncnc3n2)CCN1S(=O)(=O)c1ccc(OC(F)(F)F)cc1 [Example 639, (R)-4-pteridin-7-yl-1-(4-trifluoromethoxy-benzenesulfonyl)-piperazine-2-carboxylic acid (benzoxazol-2-ylmethyl)-amide] | 0.1 to 1 | > 1 |
| CCC(F)(F)c1ccc(CNC(=O)[C@H]2CN(c3nc4nn[nH]c(=O)c4s3)CCN2S(=O)(=O)c2ccc(OC(F)(F)F)cc2)cc1 [Example 640, (R)-4-(4-oxo-3,4-dihydro-thiazolo[4,5-d][1,2,3]triazin-6-yl)-1-(4-trifluoromethoxy-benzenesulfonyl)-piperazine-2-carboxylic acid 4-(1,1-difluoro-propyl)-benzylamide] | < 0.1 | < 0.1 |
| CC(=O)N1CCN(S(=O)(=O)c2ccc(OC(F)(F)F)cc2)[C@@H](C(=O)NCc2ccc(C(C)(C)C#N)cc2)C1 [Example 641, (R)-4-acetyl-1-(4-trifluoromethoxy-benzenesulfonyl)-piperazine-2-carboxylic acid 4-(cyano-dimethyl-methyl)-benzylamide] | 0.1 to 1 | 0.1 to 1 |
